Experimental data from patent publication US4594340A, “25,26-dehydro-1α,24R-dihydroxycholecalciferol and 25,26-dehydro-1α,24S-dihydroxycholecalciferol and the epimeric mixture” (Hoffmann-La Roche Inc., priority 1984, dated 1986).
pEC50: −log10 of the molar value.

Columns and labels:
[1] = Antirachitogenic increase in tibia ash in chicks on vitamin D-deficient diet; assay type: in vivo, chick (White Leghorn cockerels)
Experimental: **Oneday-old White Leghorn cockerels were placed on a vitamin Ddeficient
diet which contained 1% calcium and 0.7% phosphorus and were housed under
ultravioletfree lighting (General Electric F40G0 gold fluorescent lights)
The test compound was dissolved in propylene glycol and administered
orally in a volume of 0.2 ml/day for 21 consecutive days. Controls were
treated with vehicle alone. Chicks were autopsied on the day after the […]

HL-60 cells [2] = test: Differentiation of HL-60 cells by nitroblue tetrazolium (NBT) reduction; assay type: cell-based, human (patient)
Experimental: Cultures of HL-60 cells were established in the absence (control) or presence of various concentrations of the test compound. […] Proliferation was assessed by directly enumerating the increased number of tumor cells resulting from incubation. Viability was determined by dye exclusion technique to learn whether any of the compounds were lethal to cultured HL-60 cells. Cellular differentiation was evaluated by determining the number of cells which had acquired the enzymes necessary to support a respiratory burst and the functional ability to phagocytose (bind/internalize) particulate material from their environment; both activities being characteristic of mature macrophages and granulocytes,
(§1) Experimental compounds were dissolved in sufficient ethanol to yield stock solutions of 1×10^-2 molar. Reduced lighting was employed when working with compounds and stock solutions were stored in the dark at -20° in an argon atmosphere. Compounds were diluted with tissue culture medium and added to flasks containing HL-60 cells to achieve the final concentrations described in each experiment.
(§2) The promyelocytic (HL-60) tumor cell line was derived from a patient with acute promyelocytic leukemia. HL-60 cells were maintained in liquid culture by serial weekly passage in tissue culture medium. In any experiment, three replicate flasks were incubated without compound (control) or in the presence of varying concentrations of compound. […]
Quantitation of differentiated cells was done by the biochemical method of nitroblue tetrazolium (NBT) reduction. Sufficient cells were pooled from replicate cultures, centrifuged at 220×g, washed once with serum-free tissue culture medium, and resuspended to 1×10^6 cells per ml in Ca^++ --Mg^++ -deficient phosphate buffered saline (prepared by supplementing Ca^++ --Mg^++ -free phosphate buffered saline (PBS) to 10% v/v with heat-inactivated fetal bovine serum). Nitroblue tetrazolium was dissolved at 1 mg per ml in Ca^++ --Mg^++ -deficient PBS with gentle heating and mixing. Tetradecanoyl phorbol acetate (TPA) was dissolved at 1 mg per ml in ethanol and stored at -20° C. Just prior to use, a working solution of TPA was prepared by diluting the stock concentration 100-fold with Ca^++ --Mg^++ -deficient PBS. The test was done in 12×75 mm tubes by adding 0.5 ml Ca^++ --Mg^++ -deficient PBS, 1.0 ml of HL-60 cells, 0.5 ml of NBT solution, and 0.02 ml of the working TPA solution. After mixing, the tubes were incubated in a 37° water bath for 25 minutes then transferred to ice. Undifferentiated and differentiated cells present in any sample were determined microscopically by surveying 200-400 cells per sample or by cytofluorograph by surveying greater than 30,000 cells. Cells without pigmented granules (clear cells) were judged to be undifferentiated while those containing greater than 3 blue-black formazan granules were scored as differentiated. […] Results are expressed as the percentage of differentiated cells present in any sample as calculated according to the formula: [formula]

HL-60 cells [3] = test: Anti-proliferative effect on HL-60 cells (Coulter Counter enumeration); assay type: cell-based, human (patient)
Experimental: Cultures of HL-60 cells were established in the absence (control) or presence of various concentrations of the test compound. After a 4-day incubation period, the cultures were evaluated for proliferation of tumor cells, tumor cell viability, and cellular differentiation. Proliferation was assessed by directly enumerating the increased number of tumor cells resulting from incubation. Viability was determined by dye exclusion technique to learn whether any of the compounds were lethal to cultured HL-60 cells. Cellular differentiation was evaluated by determining the number of cells which had acquired the enzymes necessary to support a respiratory burst and the functional ability to phagocytose (bind/internalize) particulate material from their environment; both activities being characteristic of mature macrophages and granulocytes,
Tissure culture medium used in these experiments was RPM1-1640 supplemented prior to use to 10% v/v with fetal bovine serum (heat inactivated at 56° for 30 minutes), to 130 units per ml with penicillin and 130 μg per ml with streptomycin, and to an additional 1.6 millimolar with L-glutamine.
as §1, §2
Quantitation of proliferation was done by enumerating the number of HL-60 cells in each individual flasks (3 flasks per experimental point) using a model ZBI Coulter Counter. Results are shown as the number of cells per ml of tissue culture medium expressed as the mean±standard deviation and as percent reduction of cell number calculated according to the formula: [formula] Experimental cultures with the same or slightly greater cell numbers than control cultures are reported as zero percent reduction.

SMILES: C=C(C)[C@H](O)CC[C@@H](C)[C@H]1CC[C@H]2/C(=C/C=C3/C[C@@H](O)C[C@H](O)C3=C)CCC[C@]12C [25,26-dehydro-1α,24R-dihydroxycholecalciferol]
- Antirachitogenic Increase in Tibia Ash in Chicks ([1]; 300 ng, orally, 21 consecutive days): 20%
- potential for hypercalcemia ([1]; than for 1α,25-dihydroxycholecalciferol, as indicated by increase in tibia ash weight in chicks): much less
- induction of cellular differentiation (NBT reduction) (HL-60 cells [2]; 5, 15, 45 or 90×10^-9 molar, all incubation times): increasing proportions of differentiated cells at all incubation times
- % diff. (NBT reduction) (HL-60 cells [2]; 5 × 10^-9 molar, day 3): 5%
- diff. cells / total (NBT reduction) (HL-60 cells [2]; 5 × 10^-9 molar, day 3): 2443/44545
- % diff. (NBT reduction) (HL-60 cells [2]; 5 × 10^-9 molar, day 4): 8%
- diff. cells / total (NBT reduction) (HL-60 cells [2]; 5 × 10^-9 molar, day 4): 3401/42923
- % diff. (NBT reduction) (HL-60 cells [2]; 5 × 10^-9 molar, day 6): 7%
- diff. cells / total (NBT reduction) (HL-60 cells [2]; 5 × 10^-9 molar, day 6): 3179/47638
- % diff. (NBT reduction) (HL-60 cells [2]; 15 × 10^-9 molar, day 3): 22%
- diff. cells / total (NBT reduction) (HL-60 cells [2]; 15 × 10^-9 molar, day 3): 8971/40398
- % diff. (NBT reduction) (HL-60 cells [2]; 15 × 10^-9 molar, day 4): 23%
- diff. cells / total (NBT reduction) (HL-60 cells [2]; 15 × 10^-9 molar, day 4): 9489/40666
- % diff. (NBT reduction) (HL-60 cells [2]; 15 × 10^-9 molar, day 6): 17%
- diff. cells / total (NBT reduction) (HL-60 cells [2]; 15 × 10^-9 molar, day 6): 8167/47032
- % diff. (NBT reduction) (HL-60 cells [2]; 45 × 10^-9 molar, day 3): 49%
- diff. cells / total (NBT reduction) (HL-60 cells [2]; 45 × 10^-9 molar, day 3): 14932/30509
- % diff. (NBT reduction) (HL-60 cells [2]; 45 × 10^-9 molar, day 4): 60%
- diff. cells / total (NBT reduction) (HL-60 cells [2]; 45 × 10^-9 molar, day 4): 20003/33311
- % diff. (NBT reduction) (HL-60 cells [2]; 45 × 10^-9 molar, day 6): 63%
- diff. cells / total (NBT reduction) (HL-60 cells [2]; 45 × 10^-9 molar, day 6): 22787/36263
- % diff. (NBT reduction) (HL-60 cells [2]; 90 × 10^-9 molar, day 3): 62%
- diff. cells / total (NBT reduction) (HL-60 cells [2]; 90 × 10^-9 molar, day 3): 29458/47866
- % diff. (NBT reduction) (HL-60 cells [2]; 90 × 10^-9 molar, day 4): 73%
- diff. cells / total (NBT reduction) (HL-60 cells [2]; 90 × 10^-9 molar, day 4): 30230/41142
- % diff. (NBT reduction) (HL-60 cells [2]; 90 × 10^-9 molar, day 6): 79%
- diff. cells / total (NBT reduction) (HL-60 cells [2]; 90 × 10^-9 molar, day 6): 35708/45388
- pEC50 (HL-60 cells [2]; Homo sapiens, 96 h, HL-60 cells, NBT test, read-out: HL-60 Test Differentiation NBT Test ED50): 7.52
- induction of cellular differentiation (HL-60 cells [2]; compared with 1α,25-dihydroxycholecalciferol): induced cellular differentiation in a dose dependent fashion
- potency relative to 1α,25-dihydroxycholecalciferol (cellular differentiation) (HL-60 cells [2]; of that of 1α,25-dihydroxycholecalciferol): 40%
- inhibition of proliferation of HL-60 cells (HL-60 cells [3]): inhibited by 25,26-dehydro-1α,24R-dihydroxycholecalciferol in a dose-dependent fashion
- HL-60 Cells per ml (HL-60 cells [3]; 15 × 10^-9 molar (first line of that concentration), day 3): 12.0 ± 0.2 cells per ml (× 10^-4)
- HL-60 Cells per ml (HL-60 cells [3]; 15 × 10^-9 molar (first line of that concentration), day 4): 24.1 ± 1.0 cells per ml (× 10^-4)
- HL-60 Cells per ml (HL-60 cells [3]; 15 × 10^-9 molar (first line of that concentration), day 6): 113.0 ± 1.4 cells per ml (× 10^-4)
- HL-60 Cells per ml (HL-60 cells [3]; 15 × 10^-9 molar (second line), day 3): 12.0 ± 0.5 cells per ml (× 10^-4)
- HL-60 Cells per ml (HL-60 cells [3]; 15 × 10^-9 molar (second line), day 4): 22.0 ± 0.4 cells per ml (× 10^-4)
- HL-60 Cells per ml (HL-60 cells [3]; 15 × 10^-9 molar (second line), day 6): 71.4 ± 1.3 cells per ml (× 10^-4)
- HL-60 Cells per ml (HL-60 cells [3]; 45 × 10^-9 molar, day 3): 12.3 ± 0.2 cells per ml (× 10^-4)
- HL-60 Cells per ml (HL-60 cells [3]; 45 × 10^-9 molar, day 4): 19.0 ± 0.8 cells per ml (× 10^-4)
- HL-60 Cells per ml (HL-60 cells [3]; 45 × 10^-9 molar, day 6): 31.4 ± 0.5 cells per ml (× 10^-4)
